From paper PMC11423305, “Structure-Based Design of CBP/EP300 Degraders: When Cooperativity Overcomes Affinity” (JACS Au, 2024)

Assays:
[1] = system: CBP/EP300; test: Western blot of CBP and EP300 levels in various cell lines; type: cell-based; conditions: 16 h, 1 μM
[2] = target: T1, EP300-BRD (Homo sapiens, UniProt Q09472); test: BROMOscan ligand binding site-directed competition assay, EP300
T1 construct: T7 phage display fusion with DNA tag for qPCR; purchased Eurofins Discovery (BROMOscan service); host or cells: E. coli infected with T7 phage
T1 sequence (Q09472 1049-1156 limits assumed): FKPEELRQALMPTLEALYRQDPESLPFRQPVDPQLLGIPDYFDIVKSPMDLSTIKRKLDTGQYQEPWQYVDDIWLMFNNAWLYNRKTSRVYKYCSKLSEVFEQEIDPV
Method: 2. Methods and General Procedures […]
KD values were determined using BROMOscan™ technology, carried out by Eurofins […]
Discovery according to their standard protocol. Briefly E. coli were infected with T7 phage […]
strains displaying bromodomains and bromodomain protein was subsequently purified […]
through lysis, centrifugation and filtration. Affinity resins were generated by incubation of […]
streptavidin-coated magnetic beads with biotinylated small molecules or acetylated […]
peptide ligands. Binding reactions were assembled by combining the bromodomains and […]
liganded affinity beads in binding buffer (17 % SeaBlock, 0.33x PBS, 0.04 % Tween 20, […]
0.02 % BSA, 0.004 % sodium azide and 7.4 mM DTT) with compounds (11-point, 3-fold […]
dilution series) added to give a final DMSO concentration of 0.09 %. Assay plates were […]
incubated for 1 h, prior to washing and elution of beads. The bromodomain concentration […]
in the eluates was measured by qPCR of the DNA tag on the bromodomain.
KD values were calculated with a standard dose-response curve fitted using the Hill […]
Response = Background + Signal − Background […]
The Hill Slope was set to -1 and curves fitted using a non-linear least square fit with the Levenberg-Marquardt algorithm.
Ligand efficiency (LE) was calculated as follows: LE = 1.4(pIC50)/N

[3] = system: crebbp and ep300 expression; test: Gene expression analysis by RT-qPCR in LP1 cells; type: cell-based; conditions: 16 h, 1 μM, normalized to hprt
Method: cooperativity factor (α) was defined as the ratio of the IC50 values in the absence and […]
For the ternary complex experiments, the final assay composition was: 0.1 % DMSO, 5 nM GST-CBP, 5 nM CRBN-Avi(biotin), 100 mM KF, 0.625 nM XL665-Streptavidin conjugate and 0.8 nM anti-GST mAb – Eu3+-cryptate. The maximal control contained 40 nM dCBP-1, the blank contained no PROTAC. Hook curves were generated by normalization to the maximal control.
LP1 cells were cultured in DMEM (Gibco, 41966-029) supplemented with 15 % FBS (Sigma, F9665); MM1S and LNCaP cells in RPMI 1640 ATCC modification (Gibco, […]
DMEM/F12 (Gibco, 11320074) supplemented with 1 % non-essential amino acids […]
Quantification of CBP/EP300 degradation by Western blotting
LP1 cells plated on 6 well plates were treated with the stated compounds at a final concentration of 0.1 % DMSO for the stated time. […] Protein concentrations were determined using the Pierce ™ BCA Protein Assay Kit (Thermo Scientific, 23227) and equal amounts were separated on 4-12 % ExpressPl us™ PAGE gels (GenScript, M41215). […]
SuperSignal™ West Pico PLUS Chemiluminescent Substrate (Thermo Scientific, 34580) and the Vilber Fusion-FX7 imager. Bands were quantified using ImageJ software and protein levels normalized to protein from DMSO treated cells run on the same membrane. […]

Kd ([2]; BROMOscan): > 10 µM
loss of potency compared to parent compound 3, EP300 ([2]; BROMOscan KD ratio): > 400 fold
Compound: Cc1cc2c(NC(=O)c3cc(NC(=O)CCCCCCCCCCNc4cccc5c4C(=O)N(C4CCC(=O)NC4=O)C5=O)cc(-c4ccn(C)n4)c3)cccc2nn1 (stereo not shown) [dCE-2]
CBP/EP300 degradation in MM1S, LNCaP and SH-SY5Y cells [1]: active degrader
crebbp and ep300 expression [3]: mild upregulation
